Structures can show the parent of a compound that is named as a salt.
Legend:
[1] = tested on: primary human T-cells (IL-2 induced proliferation, JAK-1/JAK-3, Stat-5); assay: Primary Human T-Cell Proliferation Assay Stimulated with IL-2 (CellTiter-Glo); assay type: cell-based; conditions: Table III Example 4
Method: In this assay, primary human T-cells derived from peripheral blood and pre-activated through stimulation of the T-cell receptor and CD28, proliferate in culture in response to the cytokine Interleukin-2 (IL-2). This proliferative response is dependent on the activation of JAK1 and JAK3 tyrosine kinases, which phosphorylate and activate the transcription factor Stat-5. The primary human T-cells are incubated with the 2,4-pyrimidinediamine compounds in the presence of IL-2 for 72 hours, and at the assay endpoint intracellular ATP concentrations are measured to assess cell viability. A reduction in cell proliferation compared to control conditions is indicative of inhibition of the JAK kinase pathway.
Primary human T-cells derived from peripheral blood and pre-activated through stimulation of the T-cell receptor and CD28 proliferate in vitro in response to the cytokine Interleukin-2 (IL-2). This proliferative response is dependent on the activation of JAK-1 and JAK-3 tyrosine kinases, which phosphorylate and activate the transcription factor Stat-5.
Human primary T cells were prepared as follows. […] The lymphocytes at the serum: ficoll interface were recovered and washed twice with 5 volumes of PBS. […] The primary T-cells were stimulated for 3 to 4 days, then transferred to a fresh flask and maintained in RPMI with 10% FBS and 40 U/mL IL-2.
Primary T-cells were washed twice with PBS to remove the IL-2 and resuspended in Yssel's medium at 2×10^6 cells/mL. 50 μL of cell suspension containing 80 U/mL IL-2 was added to each well of a flat bottom 96 well black plate. For the unstimulated control, IL-2 was omitted from the last column on the plate. […] 50 μL of 2× compound was added per well in duplicate and the cells were allowed to proliferate for 72 hours at 37° C.
Proliferation was measured using CellTiter-Glo® Luminescent Cell Viability Assay (Promega), which determines the number of viable cells in culture based on quantitation of the ATP present, as an indicator of metabolically active cells. The substrate was thawed and allowed to come to room temperature. After mixing the Cell Titer-Glo reagent and diluent together, 100 μL was added to each well. The plates were mixed on an orbital shaker for two minutes to induce lysis and incubated at room temperature for an additional ten minutes to allow the signal to equilibrate.

[2] = tested on: IL-4 stimulated CD23 upregulation in human Ramos B cells (JAK-1/JAK-3, Stat-6); assay: Assay for Ramos B-Cell Line Stimulated with IL-4 (CD23 upregulation, FACS); assay type: cell-based
Source text: One means of assaying for such inhibition is detection of the effect of the 2,4-pyrimidinediamine compounds on the upregulation of downstream gene products. In the Ramos/IL4 assay, B-cells are stimulated with the cytokine Interleukin-4 (IL-4) leading to the activation of the JAK/Stat pathway through phosphorylation of the JAK family kinases, JAK1 and JAK3, which in turn phosphorylate and activate the transcription factor Stat-6. […] To study the effect of inhibitors (e.g., the 2,4-substituted pyrimindinediamine compounds described herein) on the JAK1 and JAK3 kinases, human Ramos B cells are stimulated with human IL-4. 20 to 24 hours post stimulation, cells are stained for upregulation of CD23 and analyzed using flow cytometry (FACS).
B-cells stimulated with cytokine Interleukin-4 (IL-4) activate the JAK/Stat pathway through phosphorylation of the JAK family kinases, JAK-1 and JAK-3, which in turn phosphorylate and activate the transcription factor Stat-6. […] To study the effect of inhibitors on the JAK family kinases, human Ramos B cells are stimulated with human IL-4.
Cells were maintained at a density of 3.5×10^5. The day before the experiment, Ramos B-cells were diluted to 3.5×10^5 cells/mL to ensure that they were in a logarithmic growth phase.
Cells were spun down and suspended in RPMI with 5% serum. 5×10^4 cells were used per point in a 96-well tissue culture plate. Cells were pre-incubated with compound or DMSO (Sigma-Aldrich, St. Louis, Mo., Cat No. D2650) vehicle control for 1 hour in a 37° C. incubator. Cells were then stimulated with IL-4 (Peprotech Inc., Rocky Hill, N.J., Cat No. 200-04) for a final concentration of 50 units/mL for 20-24 hours. […] Detection was performed using a BD LSR I System Flow Cytometer, purchased from Becton Dickinson Biosciences of San Jose, Calif.

[3] = Table III Example 3, sodium salt

Row | Structure (SMILES) | IC50 [1] | IC50 ([2]; Table III Example 3) | also measured
1 | Cc1cnc(Nc2cccc(S(=O)(=O)NCc3ccccc3)c2)nc1Nc1cccc(CNS(=O)(=O)C2CC2)c1 [Compound I-158, N2-(3-benzylaminosulfonyl)phenyl-N4-(3-cyclopropylsulfonylaminomethyl)phenyl-5-methyl-2,4-pyrimidinediamine] | 531 nM | 300 nM | 
2 | NS(=O)(=O)c1ccc(Nc2ncc(F)c(Nc3cccc(CNS(=O)(=O)C4CC4)c3)n2)cc1 [Compound I-32, N2-(4-aminosulfonyl)phenyl-N4-(3-cyclopropylsulfonylaminomethyl)phenyl-5-fluoro-2,4-pyrimidinediamine] | 1560 nM | 364 nM | 
3 | Cc1nc(N)sc1S(=O)(=O)NCc1ccc(Nc2nc(Nc3cccc(S(N)(=O)=O)c3)ncc2F)cc1 [Compound I-41, N4-[4-(2-amino-4-methylthiazol-5-yl)sulfonylaminomethyl]phenyl-N2-(3-aminosulfonyl)phenyl-5-fluoro-2,4-pyrimidinediamine] | 2120 nM | 1020 nM | 
4 | Cc1cnc(Nc2cccc(S(=O)(=O)NC(=O)CN)c2)nc1Nc1cccc(CNS(=O)(=O)C2CC2)c1 [Compound I-133, N2-[3-N-(2-amino-1-oxoethyl)aminosulfonyl]phenyl-N4-(3-cyclopropylsulfonylaminomethyl)phenyl-5-methyl-2,4-pyrimidinediamine hydrogen chloride salt] | 1210 nM | 715 nM | 
5 | Cc1ccc(Nc2ncc(F)c(Nc3cccc(CS(=O)(=O)NC4CCN(C)CC4)c3)n2)cc1S(N)(=O)=O [Compound I-107, N2-(3-Aminosulfonyl-4-methylphenyl)-5-fluoro-N4-[3-(1-methylpiperdin-4-ylaminosulfonylmethylene)phenyl]-2,4-pyrimidinediamine] | 18100 nM | 2930 nM | 
6 | C#CCNS(=O)(=O)Cc1ccc(Nc2nc(Nc3ccc(S(N)(=O)=O)cc3)ncc2F)cc1 [Compound I-6, N2-(4-Aminosulfonylphenyl)-5-fluoro-N4-[4-(prop-2-ynylaminosulfonylmethyl)phenyl]-2,4-pyrimidinediamine] |  |  | IC50 ([1]; Homo sapiens, T-cell): 536 nM; IC50 ([2]; Homo sapiens, Ramos, Table III Example 3): 559 nM
7 | Cc1ccc(Nc2ncc(F)c(Nc3ccc(CNS(=O)(=O)CS(C)(=O)=O)cc3)n2)cc1S(N)(=O)=O [Compound I-87, N2-(3-aminosulfonyl-4-methyl)phenyl-5-fluoro-N4-[4-(methylsulfonylmethylsulfonylamino)methyl]phenyl-2,4-pyrimidinediamine] | 309 nM | 251 nM | 
8 | NS(=O)(=O)c1ccc(Nc2ncc(F)c(Nc3ccc(CNS(=O)(=O)c4cccs4)cc3)n2)cc1 [Compound I-35, N2-(4-aminosulfonyl)phenyl-5-fluoro-N4-[4-(thiophen-2-yl)sulfonylaminomethyl]phenyl-2,4-pyrimidinediamine] | 436 nM | 133 nM | 
9 | Cc1cnc(Nc2ccc(S(=O)(=O)Nc3ccccc3)cc2)nc1Nc1ccc(CNS(=O)(=O)C2CC2)cc1 [Compound I-149, N4-(4-cyclopropylsulfonylaminomethyl)phenyl-5-methyl-N2-(4-phenylaminosulfonyl)phenyl-2,4-pyrimidinediamine] | 190 nM | 82.2 nM | 
10 | Cc1cnc(Nc2cccc(S(=O)(=O)NC(=O)CNC(=O)OC(C)(C)C)c2)nc1Nc1cccc(CNS(=O)(=O)C2CC2)c1 [Compound I-141, N2-{3-N-[2-(t-butoxycarbonylamino)-1-oxoethyl]aminosulfonyl}phenyl-N4-(3-cyclopropylsulfonylaminomethyl)phenyl-5-methyl-2,4-pyrimidinediamine sodium salt] |  |  | IC50 [2, 3]: 4710 nM
11 | CCCC(=O)NS(=O)(=O)c1ccc(Nc2ncc(C)c(Nc3ccc(CN(C(=O)CCC)S(=O)(=O)C4CC4)cc3)n2)cc1 [Compound I-204, N2-(4-butyrylaminosulfonyl)phenyl-N4-[4-(N-butyryl-N-cyclopropylsulfonyl)aminomethyl]phenyl-5-methyl-2,4-pyrimidinediamine] |  | 1040 nM | 
12 | Cc1cnc(Nc2cccc(S(=O)(=O)NC(=O)[C@H](Cc3ccccc3)NC(=O)OCc3ccccc3)c2)nc1Nc1cccc(CNS(=O)(=O)C2CC2)c1 [Compound I-139, N2-[3-N-(Cbz-L-Phe)aminosulfonyl]phenyl-N4-(3-cyclopropylsulfonylaminomethyl)phenyl-5-methyl-2,4-pyrimidinediamine] |  | 3320 nM | 
13 | CCC(=O)NS(=O)(=O)c1ccc(Nc2ncc(C)c(Nc3ccc(CN(C(=O)CC)S(=O)(=O)CC)cc3)n2)cc1 [Compound I-91, N4-[4-(N-ethylsulfonyl-N-propionyl)aminomethyl]phenyl-5-methyl-N2-(4-propionylaminosulfonyl)phenyl-2,4-pyrimidinediamine] |  | 1290 nM | 
14 | NS(=O)(=O)c1cccc(Nc2ncc(F)c(Nc3ccc4c(c3)CN(S(=O)(=O)C3CC3)C4)n2)c1 [II-5, N2-(3-Aminosulfonyl-phenyl)-N4-[(2-cyclopropylsulfonyl)-isoindolin-5-yl]-5-fluoro-2,4-pyrimidinediamine] |  | 698 nM | 
15 | CCCCCC(=O)NS(=O)(=O)c1cccc(Nc2ncc(C)c(Nc3cccc(CN(C(=O)CCCCC)S(=O)(=O)C4CC4)c3)n2)c1 [Compound I-218, N4-[3-(N-cyclopropylsulfonyl-N-hexanoyl)aminomethyl]phenyl-N2-(3-hexanoylaminosulfonyl)phenyl-5-methyl-2,4-pyrimidinediamine] |  | 3800 nM | 
16 | CCCC(=O)NS(=O)(=O)c1cccc(Nc2ncc(C)c(Nc3cccc(CN(C(=O)CCC)S(=O)(=O)C4CC4)c3)n2)c1 [Compound I-205, N2-(3-butyrylaminosulfonyl)phenyl-N4-[3-(N-butyryl-N-cyclopropylsulfonyl)aminomethyl]phenyl-5-methyl-2,4-pyrimidinediamine sodium salt] |  |  | IC50 [2, 3]: 3440 nM
17 | CCCC(=O)N(Cc1cccc(Nc2nc(Nc3cccc(S(N)(=O)=O)c3)ncc2C)c1)S(=O)(=O)C1CC1 [Compound I-224, N2-(3-aminosulfonyl)phenyl-N4-[3-(N-butyryl-N-cyclopropylsulfonyl)aminomethyl]phenyl-5-methyl-2,4-pyrimidinediamine] |  | 21.8 nM | 
18 | Cc1cnc(Nc2cccc(S(=O)(=O)NC(=O)[C@H](Cc3ccccc3)NC(=O)OCc3ccccc3)c2)nc1Nc1cccc(CNS(=O)(=O)C2CC2)c1 [Compound I-135, N2-[3-N-(Cbz-L-Phe)aminosulfonyl]phenyl-N4-(3-cyclopropylsulfonylaminomethyl)phenyl-5-methyl-2,4-pyrimidinediamine sodium salt] |  |  | IC50 [2, 3]: 1000 nM
19 | CCC(=O)NS(=O)(=O)c1cc(Nc2ncc(F)c(Nc3ccc(CNS(=O)(=O)C4CC4)cc3)n2)ccc1C [Compound I-63, N4-(4-cyclopropylsulfonylaminomethyl)phenyl-5-fluoro-N2-(4-methyl-3-propionylaminosulfonyl)phenyl-2,4-pyrimidinediamine sodium salt] |  |  | IC50 [2, 3]: 9450 nM
20 | CCC(=O)NS(=O)(=O)c1cccc(Nc2ncc(F)c(Nc3ccc(CN(C(=O)CC)S(=O)(=O)C4CC4)cc3)n2)c1 [Compound I-62, N4-[4-(N-cyclopropylsulfonyl-N-propionyl)aminomethyl]phenyl-5-fluoro-N2-(3-propionylaminosulfonyl)phenyl-2,4-pyrimidinediamine sodium salt] |  |  | IC50 [2, 3]: 10700 nM
21 | Cc1cnc(Nc2cccc(S(=O)(=O)NC(=O)[C@@H](NC(=O)OCc3ccccc3)C(C)C)c2)nc1Nc1cccc(CNS(=O)(=O)C2CC2)c1 [Compound I-144, N2-[3-N-(Cbz-L-Val)aminosulfonyl]phenyl-N4-(3-cyclopropylsulfonylaminomethyl)phenyl-5-methyl-2,4-pyrimidinediamine] |  | 7720 nM | 
